In US7897637B2, “Methods of using flavonoids to enhance memory” (The Salk Institute for Biological Studies, priority 2006, dated 2011):

Legend:
[1] = Trolox Equivalent Activity Concentration (ABTS decolorization assay); conditions: Trolox as reference
Protocol: To determine if the protection seen with the different fisetin derivatives correlated with their antioxidant properties, their Trolox Equivalent Activity Concentration (TEAC) values were determined. In this procedure, a compound is compared to Trolox, a water-soluble vitamin E analog, for its ability to reduce the radical cation of ABTS in aqueous solution. As reported previously, fisetin has a TEAC value of ˜3 (Table II). None of the derivatives had TEAC values in this range despite, in some cases, showing better protection against oxidative stress-induced death. Thus, there was no correlation with antioxidant activity as defined by TEAC value and protection in this system.
TEAC values for the flavonoids were determined according to (Re et al. Free Rad. Biol. Med., 26:1231-7, 1999) but modified for a plate reader. Briefly, 250 μl of 2,2′-azinobis(3-ethylbenzothiazoline 6-sulfonate)(ABTS) treated overnight with potassium persulfate and diluted to an OD of ˜0.7 at 734 nm was added to 2.5 μl of a flavonoid solution in ethanol. The change in absorbance due to the reduction of the ABTS radical cation was measured at 734 nm for 4 minutes. To calculate the TEAC, the gradient of the plot of the percentage inhibition of absorbance vs. concentration for the flavonoid in question is divided by the gradient of the plot for Trolox.

Nrf2 and HO-1 = Nrf2 and HO-1 induction in HT22 cells (immunoblotting); type: cell-based, mouse; conditions: for increasing the levels of Nrf2 and inducing HO-1 synthesis: HT22 cells, 10-25 μM, 4 hours (Nrf2), 24 hours (HO-1)
Protocol: Since the ability to activate the ARE could be important for some of the beneficial effects of flavonoids such as fisetin, it was determined which, if any, of the fisetin derivatives could activate the ARE and induce the synthesis of downstream proteins such as HO-1. HT22 cells were untreated (control) or treated with 10 μM fisetin, 25 μM 3,3′DHF, 25 μM 3,4′-DHF, 10 μM 3′,4′-DHF, 10 μM 3,3′,4′-THF, 25 μM 3,7,3′-THF, 25 μM 3,7,4′-THF or 10 μM 7,3′,4′-THF for 4 hours. Nuclei were prepared and equal amounts of protein were analyzed by SDS-PAGE and immunoblotting with anti-Nrf-2 antibodies.
ERK activation is implicated in the induction of Nrf2 by certain stimuli in some cell types. To determine if ERK activation plays a role in the induction of Nrf2 and HO-1 by fisetin and its derivatives, cells were pretreated with PD98059 prior to the addition of the flavonoids to the cells. HT22 cells then were untreated (control) or treated for 24 hours with 10 μM fisetin, 25 μM 3,3′-DHF, 25 μM 3,4′-DHF, 10 μM 3′,4′-DHF, 10 μM 3,3′,4′-THF, 25 μM 3,7,3′-THF, 25 μM 3,7,4′-THF or 10 μM 7,3′,4′-THF. Cell lysates were prepared and equal amounts of cellular protein were analyzed by SDS-PAGE and immunoblotting with anti-HO-1 antibodies. Immunoblotting with anti-actin was used as a loading control.
For immunoblotting of HO-1, untreated and flavonoid-treated HT22 cells from the same density cultures as used for the cell death assays were washed twice in cold phosphate-buffered saline (PBS) then scraped into lysis buffer containing 50 mM HEPES, pH 7.4, 150 mM NaCl, 50 mM NaF, 1.5 mM MgC2, 1 mM EGTA, 10% glycerol, 1% Triton X-100, 10 mM sodium pyrophosphate, 1 mM Na3VO4, 1 mM phenylmethylsulfonyl fluoride (PMSF), 15 μg/ml aprotinin, 1 μg/ml pepstatin, and 5 μg/ml leupeptin. Lysates were incubated at 4° C. for 30 minutes, and then cleared by centrifugation at 14,000 rpm for 10 minutes. For immunoblotting of Nr12, nuclear extracts were prepared as described (Schreiber et al., Nuc. Acids Res., 17:6419, 1989) from untreated and flavonoid-treated cells. […] Protein concentrations were determined using the BCA protein assay (Pierce). Equal amounts of protein were solubilized in 2.5×SDS sample buffer, separated on 10% SDS polyacrylamide gels and transferred to nitrocellulose. The primary antibodies used were: anti-Nrf2 (#SC13032; 1/1000) from Santa Cruz Biotechnology (Santa Cruz, Calif.) and anti-HO-1 (#SPA-896; 1/5000) from Stressgen (Victoria, BC Canada).

PC12 cells = experiment: PC12 cell differentiation assay (neurite outgrowth); type: cell-based; conditions: for EC50 / Emax: Rattus norvegicus, PC-12, PC12 cells in N2 medium, 24 hours, neurites scored; for EC50: read-out: EC50 (μM), induction of PC12 cell differentiation; for Emax: read-out: Maximal Efficacy, induction of PC12 cell differentiation
Protocol: Four trihydroxyflavones (THF) and three dihydroxyflavones (DHF) which lack one or two, respectively, of the hydroxyl groups found in fisetin were tested for their ability to induce the differentiation of PC12 cells. Differentiation was assessed by scoring neurite outgrowth (Sagara et al., J. Neurochem., 90:1144-1155, 2004). […]
PC12 cells in N2 medium were treated with flavonoids for 24 hours at which time the cells were scored for the presence of neurites. PC12 cells produce neurites much more rapidly when treated in N2 medium than when treated in regular growth medium (Kimura et al., J. Cell Biol., 116:777-83, 1992). For each treatment, 100 cells in each of three separate fields were counted. Cells were scored positive if one or more neurites>1 cell body diameter in length were observed.

Compound | TEAC [1] | increasing the levels of Nrf2 and inducing HO-1 synthesis (Nrf2 and HO-1) | ability to induce differentiation (PC12 cells; PC12 cells) | EC50 (PC12 cells) | Emax (PC12 cells) | differentiation of the PC12 cells (PC12 cells; concentration of 5 μM) | TEAC ([1]; listed as 3,7,3,′4′-THF (fisetin)) | effect of inhibition of ERK activation (PD98059) on Nrf2 and HO-1 induction (Nrf2 and HO-1; PD98059 pretreatment)
O=c1c(O)c(-c2ccc(O)c(O)c2)oc2ccccc12 [3,3′,4′-THF, 3,3′,4′-trihydroxyflavone] | 2.07 ± 0.06 | fairly effective | most effective of those tested | 2.5 µM | 80 to 90% | > 80% | – | –
O=c1cc(-c2ccc(O)c(O)c2)oc2ccccc12 [3′,4′-DHF, 3′,4′-dihydroxyflavone] | 1.24 ± 0.08 | weakly active | – | 10 µM | 40 to 50% | – | – | –
O=c1c(O)c(-c2ccc(O)c(O)c2)oc2cc(O)ccc12 [fisetin, 3,3′,4′,7-tetrahydroxyflavone] | ~3 | best of the group | – | 5 µM | 70 to 80% | – | 3.11 ± 0.20 | no effect
